The source of these data is patent US6815451B2, “1,2,3,4-Tetrahydroisoquinolines derivatives as urotensin II receptor antagonists” (Actelion Pharmaceuticals Ltd., priority 2001, dated 2004).

Assay [1] addresses T1, urotensin II receptor on TE-671 rhabdomyosarcoma cells (Homo sapiens, UniProt Q9UKP6).
T1 construct: host or cells: TE-671 rhabdomyosarcoma cells
T1 sequence (Q9UKP6 1-389): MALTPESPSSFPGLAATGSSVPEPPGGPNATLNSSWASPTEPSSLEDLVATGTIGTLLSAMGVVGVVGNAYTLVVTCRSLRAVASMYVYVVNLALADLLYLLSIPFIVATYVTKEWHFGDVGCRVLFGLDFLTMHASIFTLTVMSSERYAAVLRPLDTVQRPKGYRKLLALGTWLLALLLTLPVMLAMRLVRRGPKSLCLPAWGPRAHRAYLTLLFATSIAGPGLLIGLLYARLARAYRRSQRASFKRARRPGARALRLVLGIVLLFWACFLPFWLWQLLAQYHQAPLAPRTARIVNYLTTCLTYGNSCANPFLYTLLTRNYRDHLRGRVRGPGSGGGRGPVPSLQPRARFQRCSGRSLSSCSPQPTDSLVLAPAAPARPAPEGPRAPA
Description: Inhibition of human [125I]-urotensin II binding to a rhabdomyosarcoma cell line (whole cell binding). Conditions: TE-671 whole cells, 20 pM human [125I]urotensin II, 4 h at 20° C. The method, then: 1) Inhibition of Human [125I]-urotensin II Binding to a Rhabdomyosarcoma Cell Line
Whole cell binding of human [^125I]-urotensin II is performed using human-derived TE-671 rhabdomyosarcoma cells (Deutsche Sammlung von Mikroorganismen und Zellkulturen, cell line #ACC-263), by methods adapted from a whole cell endothelin binding assay (Breu V et al., In vitro characterization of Ro-46-2005, a novel synthetic non-peptide antagonist of ETA and ETB receptors. FEBS Lett. 1993, 334, 210-214).
The assay is performed in 250 μL Dubecco's modified eagle medium, pH 7.4 (GIBCO BRL, CatNo 31885-023), including 25 mM HEPES (Fluka, CatNo 05473), 1.0% DMSO (Fluka, CatNo 41644) and 0.5% (w/v) BSA Fraction V (Fluka, CatNo 05473) in polypropylene microtiter plates (Nunc, CatNo 442587). 300,000 suspended cells are incubated with gentle shaking for 4 h at 20° C. with 20 pM human [^125I]Urotensin II (Anawa Trading SA, Wangen, Switzerland, 2130 Ci/mmol) and increasing concentrations of unlabeled antagonist. Minimum and maximum binding are derived from samples with and without 100 nM unlabelled U-II, respectively. After the 4 h incubation period, the cells are filtered onto GF/C filter plates (Packard, CatNo 6005174). The filter plates are dried, and then 50 μL scintillation cocktail (Packard, MicroScint 20, CatNo 6013621) is added to each well. The filter plates are counted in a microplate counter (Packard Bioscience, TopCount NXT).
All test compounds are dissolved and diluted in 100% DMSO. A […] dilution into assay buffer is performed prior to addition to the assay. […] Specific binding is the difference between maximum binding and minimum binding, as described above.

A further assay concerns isolated rat aortic arch. The note with it: for pD2′ (functional inhibitory potency): Wistar rat aortic arch rings, 20 min incubation with test compound before cumulative doses of human urotensin II. The method, then:
2) Inhibition of Human Urotensin II-Induced Contractions of Isolated Rat Aortic Arch Adult Wistar rats are anesthetized (CO2 inhalation) and exsanguinated. The aortic arch is excised, dissected and cut in 3 rings of 3 mm, ring #1 being the more proximal and ring #3 being the more distal. Each ring is suspended in a 10 mL isolated organ bath filled with Krebs-Henseleit solution (in mM; NaCl 115, KCl 4.7, MgSO4 1.2, KH2PO4 1.5, NaHCO3 25, CaCl2 2.5, glucose 10; pH 7.4) kept at 37° C. and gassed with 95% O2 and 5% CO2. The rings are connected to force transducers and isometric tension is recorded (EMKA Technologies SA, Paris, France). The rings are stretched to a resting tension of 3 g. […] The functional inhibitory potency of the test compound is assessed by calculating the pD2′ according to the formula: pD2′=Log (CR-1)-Log [B], where CR is the ratio of the maximal effect without/with antagonist and [B] the concentration of the antagonist.

A word on the IC50: it is the midpoint of a concentration-inhibition curve. Lower therefore signals greater potency. In turn, `COc1cc2c(cc1OC)C(CCc1cc(F)ccc1F)N(CCNC(=O)Nc1cc(C)nc3ccccc13)CC2` (stereo not shown) [Example 20, 1-(2-{1-[2-(2,5-Difluoro-phenyl)-ethyl]-6,7-dimethoxy-3,4-dihydro-1H-isoquinolin-2-yl}-ethyl)-3-(2-methyl-quinolin-4-yl)-urea] displayed an IC50 in assay [1] of 67 nM.
As to `COc1ccc(CCC2c3cc(OC)c(OC)cc3CCN2CCNC(=O)Nc2cc(C)nc3ccccc23)cc1OC` (stereo not shown) [Example 22, 1-(2-{1-[2-(3,4-Dimethoxy-phenyl)-ethyl]-6,7-dimethoxy-3,4-dihydro-1H-isoquinolin-2-yl}-ethyl)-3-(2-methyl-quinolin-4-yl)-urea], in assay [1], the IC50 came to 63 nM.
In the case of `COc1cc2c(cc1OC)C(CCc1ccccc1)N(CCNC(=O)Nc1cc(C)nc3ccccc13)CC2` (stereo not shown) [Example 29, 1-[2-(6,7-Dimethoxy-1-phenethyl-3,4-dihydro-1H-isoquinolin-2-yl)-ethyl]-3-(2-methyl-quinolin-4-yl)-urea], the IC50 in assay [1] was 125 nM. In addition, the “pD2′ (functional inhibitory potency)” value with isolated rat aortic arch was determined as 5.23.
Regarding `COc1cc2c(c(OC)c1)C(Cc1ccc(OC)c(OC)c1)N(CCNC(=O)Nc1cc(C)nc3ccccc13)CC2` (stereo not shown) [Example 58, 1-{2-[1-(3,4-Dimethoxy-benzyl)-6,8-dimethoxy-3,4-dihydro-1H-isoquinolin-2-yl]-ethyl}-3-(2-methyl-quinolin-4-yl)-urea], the IC50 in assay [1] is 550 nM. This counts as sub-micromolar.
Take `COc1ccc(CC2c3c(OC)ccc(OC)c3CCN2CCNC(=O)Nc2ccnc3ccccc23)cc1OC` (stereo not shown) [Example 93, 1-{2-[1-(3,4-Dimethoxy-benzyl)-5,8-dimethoxy-3,4-dihydro-1H-isoquinolin-2-yl]-ethyl}-3-quinolin-4-yl-urea]: the “pD2′ (functional inhibitory potency)” value with isolated rat aortic arch is listed as 5.45.
Usually EC50 stands for the concentration at which the effect is half-maximal. Take `CC(C)[C@H](NC(=O)[C@@H]1CSSC[C@H](NC(=O)[C@H](CC(=O)O)NC(=O)[C@@H]2CCCN2C(=O)[C@@H](NC(=O)[C@@H](N)CCC(=O)O)[C@@H](C)O)C(=O)N[C@@H](Cc2ccccc2)C(=O)N[C@@H](Cc2c[nH]c3ccccc23)C(=O)N[C@@H](CCCCN)C(=O)N[C@@H](Cc2ccc(O)cc2)C(=O)N1)C(=O)O` [human U-II, reference compound]: a half-maximal response in the assay on isolated rat aortic arch (EC50) required 1.09 ± 0.1 nM.
